# Experiments:
# [1] = tested on: adhesion of human neutrophils to the endothelial monolayer; assay: Neutrophil adhesion assay on TNF-alpha induced HUVECs; format: cell-based; settings: HUVEC, HUVECs pretreated 2 h, TNF-α 6 h, adhesion 1 h at 37° C.
# Procedure: FIG. 5. IICT-TA67 inhibits the adhesion of Neutrophils on TNF-alpha induced HUVECs. To study whether the inhibition of Intercellular Adhesion Molecule type 1 (ICAM-1) and Vascular Cell Adhesion Molecule type 1(VCAM-1) functionally correlates with the inhibition of adhesion of neutrophils to the endothelial monolayer, neutrophil adhesion assay was performed. For this, HUVECs were pretreated with various concentrations of IICT-TA67 for 2 hours followed by induction with TNF-α for 6 hours. Human blood neutrophils were added onto the endothelial cells monolayer and allowed to adhere for one hour at 37° C. The number of cells that remained adhered to the monolayer was estimated by measuring the peroxidase activity.
# Neutrophils were isolated from peripheral blood of healthy individuals. Blood was collected in heparin solution (20 U/ml) and erythrocytes were removed by sedimentation against 6% dextran solution. […] The number of cells were recorded to make a final concentration of 6×10^5 cells/ml.
# The endothelial cells plated in 96-well culture plates were incubated with or without compound IICT-TA67 at desired concentrations for 2 h, followed by induction with TNF-α (10 ng/ml) for 6 h. […] The absorbance was read at 490 nm using an automated microplate reader (Model 680, Bio-Rad, USA).
# PDE-4 = assay: Phosphodiesterase 4 assay ([3H]cAMP SPA), enzyme preparation from rat heart; format: biochemical; settings: PDE-4 activity, dose 10 μg/ml
# Procedure: FIG. 2. […] To examine whether IICT-TA67 inhibits PDE-4 activity in vitro, enzyme preparations were incubated in the absence or presence of different concentrations (1-20 μg/ml) of IICT-TA67 and breakdown of cAMP was monitored by β counter.
# Table 1. Measurement of phosphodiesterase (PDE)-4 activity by compounds.
# Heart was excised from anesthetized rat and transfer into normal saline solution. […] The homogenate was centrifuged at 500×g for 5 minute at 4° C. Then sup was taken for further centrifuged at 40,000×g for 30 minute (ultra centrifugation). After centrifugation supernatant was collected for phosphodiesterase assay. Protein concentration was estimated and for each assay, 2.5 μg protein (PDE enzyme preparation) was used.
# Phosphodiesterase 4 assay: Phosphodiesterase 4 assay was conducted with [^3H] cAMP SPA enzyme assay (GE Amersham, UK) using 2.5 μg enzyme preparation for each well. Into each well 60 μl water, 10 μl assay buffer supplied with the kit, 10 μl compound (inhibitor), 10 μl PDE enzyme or homogenizing buffer (blank) and 10 μl radiolabel led cAMP ([^3H]cAMP, GE Amersham, UK) were added. To check activity of the enzyme without inhibitor 10 μl DMSO was added in place of inhibitor to a separate well. The reaction mixtures were incubated for 30 mi at 30° C. The reaction was stopped by adding 50 μl SPA bead supplied with the kit. It was then mixed well and allowed to stand at room temperature for 20 min. Breakdown of cAMP in each tube was monitored by β counter. The reading in each tube was obtained in counts per minute (CPM). The reading of the blank tube (without enzyme) was subtracted from each tube to normalize the counts. The enzyme activity was calculated by considering the CPM reading without any inhibitor (compound) as 100.
# [2] = Balb/c 3T3 Neutral Red Uptake (NRU) cytotoxicity assay; format: cell-based; settings: mouse
# Excerpt: (§1) FIG. 8. IICT-TA67 is not toxic. To evaluate the cytotoxicity of test chemical (IICT-TA67) BALB/c 3T3 cell line was used for Neutral Red Uptake (NRU) cytotoxicity test. The test result has been used to determine IC50 for IICT-TA67 and acute oral toxicity (LD50) in rodent was predicted.
# (§2) Basal cytotoxicity of IICT-TA67 has been performed to measure IC50 and thereafter predict in vivo acute oral LD50 values in rodent by using Halle's Registry of cytotoxicity (RC) prediction model: log (LD50)=0.435×log (IC50)+0.625 (Halle, 1998; Spielmann et al., 1999). Balb/c 3T3 Neutral Red Dye Uptake (NRU) cytotoxicity assay procedure was adopted (Liebsch & Spielmann 1995). In brief 3T3 cell were grown in 96 well microtitre plates and exposed to IICT-TA-67. After 48-hour incubation, the test material was removed and Neutral red (NR) solution was applied to the cells. The cells were incubated again, the excess NR solution was removed and finally NR was eluted from the cells. The NRU was determined by using a microtitre plate reader to measure the optical density at 540 nm of the eluted dye in 96 well plate. A calculation of cell viability expressed as NRU was made for each concentration of the test chemical by using the mean NRU of 6 replicate values per test concentration. The cell viability value was compared with the mean NRU of all vehicle control values and relative cell viability was then expressed as percent of untreated vehicle control. […] Although the percentage of viability is slightly more than 95% at 50 μg/ml of IICT-67, 30 μg/ml (% viability of cells is 98%)
# BALB/c 3T3 cell line = assay: as above; format: cell-based; settings: for toxicity: NRU cytotoxicity test (FIG. 8)
# Excerpt: as §1, §2
compound,measurement,setting,value
"COc1ccc(C(c2[nH]c3ccccc3c2CC(=O)O)c2[nH]c3ccccc3c2CC(=O)O)cc1Oc1nc(NC2CC2)nc(NC2CC2)n1 [Compound 7, 2,2′-[2,2′-3-(4,6-bis-cyclopropylamino)-1,3,5-triazin-2-yl-oxy-4-methoxy-phenyl]-methylene-bis-(1H-indole-3,3-diyl)-diacetic acid]",IC50,[1],12 µg/mL
same,Inhibition %,PDE-4,60%
same,IC50 at 48 h,[2],32 µg/mL
same,% viability of cells,BALB/c 3T3 cell line; 30 μg/ml,98%
same,percentage of viability,BALB/c 3T3 cell line; 50 μg/ml,more than 95%
same,toxicity,BALB/c 3T3 cell line; listed as IICT-67,does not seem to be toxic to endothelial cells
same,toxicity,BALB/c 3T3 cell line; listed as IICT-TA67,not toxic

# Reference: patent US9085559B2, “Triazine-aryl-bis-indoles and process for preparation thereof” (COUNCIL OF SCIENTIFIC & INDUSTRIAL RESEARCH, priority 2010, dated 2015)
